Data published in patent US12304912B2, “Fused bicyclic RAF inhibitors and methods for use thereof” (Jazz Pharmaceuticals Ireland Limited, priority 2020, dated 2025).
Counter-ions that a name gives are not always drawn. Like-named read-outs stand apart in the source and are kept apart here.

How the values were obtained:
[1] = test system: BRAF monomers in A375 cells; test: A375 AlphaLISA SureFire pERK1/2 cellular assay (monomer); format: cell-based; conditions: Homo sapiens, A-375; A375 cells, 1 hr; read-out: pERK A375 (1 hr) pIC50 (converted)
Outline: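 BRAF^V600E A375 melanoma cells seeded at 30,000/well in DMEM with 10% FBS, dosed without medium exchange in a 10-point series from 10 μM at 1/2-log steps, 1 h at 37 °C. Phospho-ERK1/2 (Thr202/Tyr204) measured in lysates by AlphaLISA SureFire; absolute IC50 relative to DMSO control.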

[2] = test system: constitutive ERK phosphorylation in HCT-116 cells; test: HCT-116 AlphaLISA SureFire pERK1/2 cellular assay; format: cell-based, human; conditions: HCT116 cells, 2 hr; for IC50: Homo sapiens, HCT-116, read-out: pERK HCT116 (2 hr) Abs pIC50 (converted)
Procedure: HCT-116 AlphaLISA SureFire pERK1/2 Cellular Assay […] […] Assay read outs took place 2 or 24 hours after dosing with compounds. On the first day, HCT-116 cells were harvested, resuspended in growth medium (McCoys5A with Glutamax (Life Technologies 36600021) and 10% heat-inactivated fetal bovine serum (Sigma F9665)), and counted. Cells were plated in 100 μl per well in each well of a 96-well culture dish (Sigma CLS3598) to a final density of 30,000 (2 hr read) or 15,000 (24 hr read) cells per well and incubated over night at 37° C. and 5% CO2. On day 2, the growth medium was exchanged for dosing medium (McCoys5A with Glutamax (Life Technologies 36600021) and 1% heat-inactivated fetal bovine serum (Sigma F9665)) and the cells were dosed with compounds to produce a 10-point dose response, where the top concentration was 1 μM and subsequent concentrations were at 1/3 log dilution intervals. A matched DMSO control was included. The cells were subsequently incubated for either 2 or 24 hours at 37° C. and 5% CO2. After incubation, media was removed and the cells were incubated with lysis buffer containing phosphatase inhibitors for 15 minutes at room temperature. Cell lysates were transferred to a 12 area 96 well white Optiplate™ (Perkin Elmer 6005569) and incubated with anti-mouse IgG acceptor beads, a biotinylated anti-ERK1/2 rabbit antibody recognizing both phosphorylated and non-phosphorylated ERK1/2, a mouse antibody targeted to the Thr202/Tyr204 epitope and recognizing phosphorylated ERK proteins only, and streptavidin-coated donor beads. The biotinylated antibody binds to the streptavidin-coated donor beads and the phopsho-ERK1/2 antibody binds to the acceptor beads. […] Both antibodies bound to phosphorylated ERK proteins, bringing the donor and acceptor beads into close proximity. All data were analyzed using the Dotmatics or GraphPad Prism software packages. Inhibition of ERK phosphorylation was assessed by determination of the absolute IC50 value, which is defined as the concentration of compound required to decrease the level of phosphorylated ERK proteins by 50% when compared to DMSO control.

With O=C1CCc2c(Oc3ccc4c(c3)CC(c3nc5cc(C(F)(F)F)ncc5[nH]3)CO4)ccnc2N1 (racemic) [Compound 32] as the compound, how does the IC50 [1] read?
The IC50 was 251 nM.

What about the IC50 ([2]; absolute IC50) of the same compound?
The IC50 was 229 nM.

What does the source list for O=C(Nc1cc(Oc2ccc3c(c2)CC(c2nc(-c4ccccc4)c[nH]2)CO3)ccn1)C1CC1 (racemic) [Compound 136]?
IC50 [1]: 162 nM; IC50 ([2]; Abs): 27.5 nM

O=C1CCc2c(Oc3ccc4c(c3)CC(c3nc(-c5ccnc(C(F)(F)F)c5)c[nH]3)CO4)ccnc2N1 (stereo not shown) [Compound 8, 5-[3-[4-[2-(trifluoromethyl)-4-pyridyl]-1H-imidazol-2-yl]chroman-6-yl]oxy-3,4-dihydro-1H-1,8-naphthyridin-2-one] was tested. Which IC50 [1] did it give?
Its IC50 is 316 nM.

What about the “pERK HCT116 (2 hr) Abs pIC50” value ([2]; Abs) of the same compound?
The value was 6.76.

And the IC50 ([2]; absolute IC50)?
The IC50 was 174 nM.

What does the source list for O=C1CCc2c(Oc3ccc4c(c3)CC(c3nc(-c5cccc(C(F)(F)F)c5)c[nH]3)CO4)ccnc2N1 (stereo not shown) [Compound 12, 5-[3-[4-[3-(trifluoromethyl)phenyl]-1H-imidazol-2-yl]chroman-6-yl]oxy-3,4-dihydro-1H-1,8-naphthyridin-2-one]?
IC50 [1]: 42.7 nM; IC50 ([2]; absolute IC50): 257 nM

Which results are given for COc1cc(-c2c[nH]c(C3COc4ccc(Oc5ccnc6c5CCC(=O)N6)cc4C3)n2)ccn1 (stereo not shown) [Compound 19, 5-[3-[4-(2-methoxy-4-pyridyl)-1H-imidazol-2-yl]chroman-6-yl]oxy-3,4-dihydro-1H-1,8-naphthyridin-2-one]?
IC50 [1]: 1620 nM; IC50 ([2]; absolute IC50): 316 nM

With O=C1CCc2c(Oc3ccc4c(c3)CC(c3nc5cc(C(F)(F)F)ccc5[nH]3)CO4)ccnc2N1 (stereo not shown) [Compound 22, 5-[3-[6-(trifluoromethyl)-1H-benzimidazol-2-yl]chroman-6-yl]oxy-3,4-dihydro-1H-1,8-naphthyridin-2-one] as the compound, how does the IC50 [1] read?
The IC50 was 20 nM.

And the IC50 ([2]; absolute IC50)?
Its IC50 is 141 nM.

For O=C1CCc2c(Oc3ccc4c(c3)CC(c3nc5cc(F)c(F)cc5[nH]3)CO4)ccnc2N1 (stereo not shown) [Compound 23], which IC50 [1] is on record?
The IC50 was 257 nM.

And the IC50 ([2]; absolute IC50)?
The IC50 was 316 nM.

Which results are given for N#Cc1ccc2[nH]c(C3COc4ccc(Oc5ccnc6c5CCC(=O)N6)cc4C3)nc2c1 (stereo not shown) [Compound 24]?
IC50 [1]: 562 nM; IC50 ([2]; absolute IC50): 407 nM

What does the source list for O=C1CCc2c(Oc3ccc4c(c3)CC(c3nc5cc(Cl)ccc5[nH]3)CO4)ccnc2N1 (stereo not shown) [Compound 25]?
IC50 [1]: 115 nM; IC50 ([2]; absolute IC50): 85.1 nM

With CN(C)c1ccc2[nH]c(C3COc4ccc(Oc5ccnc6c5CCC(=O)N6)cc4C3)nc2c1 (stereo not shown) [Compound 26] as the compound, how does the IC50 [1] read?
The IC50 was 64.6 nM.

What about the IC50 ([2]; absolute IC50) of the same compound?
The IC50 was 417 nM.

For Cc1cc2nc(C3COc4ccc(Oc5ccnc6c5CCC(=O)N6)cc4C3)[nH]c2cc1C (stereo not shown) [Compound 29], which IC50 [1] is on record?
The IC50 was 32.4 nM.

And the IC50 ([2]; absolute IC50)?
The IC50 was 132 nM.

With O=C1CCc2c(Oc3ccc4c(c3)CN(c3nc(-c5ccccc5)n[nH]3)CC4)ccnc2N1 [Compound 44, 5-[[2-(3-phenyl-1H-1,2,4-triazol-5-yl)-3,4-dihydro-1H-isoquinolin-7-yl]oxy]-3,4-dihydro-1H-1,8-naphthyridin-2-one hydrochloride] as the compound, how does the IC50 [1] read?
Its IC50 is 1200 nM.

And the IC50 ([2]; absolute IC50)?
The IC50 was 537 nM.

With O=C(Nc1cc(Oc2ccc3c(c2)CC(c2nc(-c4ccccc4)c[nH]2)CO3)ccn1)C1CC1 (stereo not shown) [Compound 45, N-[4-[3-(4-phenyl-1H-imidazol-2-yl)chroman-6-yl]oxy-2-pyridyl]cyclopropanecarboxamide] as the compound, how does the IC50 [1] read?
The IC50 was 162 nM.

And the IC50 ([2]; absolute IC50)?
Its IC50 is 27.5 nM.

How did the IC50 [1] turn out when O=C1CCc2c(Oc3ccc4c(c3)CN(C(=O)Nc3ccc(C(F)(F)F)cc3)CC4)ccnc2N1 [Compound 47] was run?
Its IC50 is 229 nM.

And the IC50 ([2]; absolute IC50)?
The IC50 was 69.2 nM.

Which results are given for O=C1CCc2c(Oc3ccc4c(c3)CN(C(=O)Nc3cccc(C(F)(F)F)c3)CC4)ccnc2N1 [Compound 50]?
IC50 [1]: 269 nM; IC50 ([2]; absolute IC50): 46.8 nM

How did the IC50 [1] turn out when O=C1CCc2c(Oc3ccc4c(c3)CC(c3nc(-c5ccnc(C(F)F)c5)c[nH]3)CO4)ccnc2N1 (stereo not shown) [Compound 101, 5-[3-[4-[2-(difluoromethyl)-4-pyridyl]-1H-imidazol-2-yl]chroman-6-yl]oxy-3,4-dihydro-1H-1,8-naphthyridin-2-one] was run?
The IC50 was 204 nM.

And the IC50 ([2]; Abs)?
Its IC50 is 132 nM.

Which IC50 [1] does the source give for O=C1CCc2c(Oc3ccc4c(c3)CC(c3nc(-c5cncc(C(F)(F)F)c5)c[nH]3)CO4)ccnc2N1 (stereo not shown) [Compound 103, 5-[3-[4-[5-(trifluoromethyl)-3-pyridyl]-1H-imidazol-2-yl]chroman-6-yl]oxy-3,4-dihydro-1H-1,8-naphthyridin-2-one] here?
The IC50 was 389 nM.

What about the IC50 ([2]; Abs) of the same compound?
The IC50 was 240 nM.

With COc1cc(-c2c[nH]c(C3COc4ccc(Oc5ccnc6c5CCC(=O)N6)cc4C3)n2)ccn1 (stereo not shown) [Compound 104] as the compound, how does the “pERK HCT116 (2 hr) Abs pIC50” value ([2]; Abs) read?
Its value is 6.50.

With O=C1CCc2c(Oc3ccc4c(c3)CC(c3nc(-c5cncc(C(F)F)c5)c[nH]3)CO4)ccnc2N1 (stereo not shown) [Compound 105, 5-[3-[4-[5-(difluoromethyl)-3-pyridyl]-1H-imidazol-2-yl]chroman-6-yl]oxy-3,4-dihydro-1H-1,8-naphthyridin-2-one] as the compound, how does the IC50 [1] read?
Its IC50 is 417 nM.

And the IC50 ([2]; Abs)?
Its IC50 is 178 nM.

Which results are given for Cc1cc(-c2c[nH]c(C3COc4ccc(Oc5ccnc6c5CCC(=O)N6)cc4C3)n2)n(C)n1 (stereo not shown) [Compound 106, 5-[3-[4-(2,5-dimethylpyrazol-3-yl)-1H-imidazol-2-yl]chroman-6-yl]oxy-3,4-dihydro-1H-1,8-naphthyridin-2-one]?
IC50 [1]: 933 nM; IC50 ([2]; Abs): 275 nM

Cn1nc(C(F)(F)F)cc1-c1c[nH]c(C2COc3ccc(Oc4ccnc5c4CCC(=O)N5)cc3C2)n1 (stereo not shown) [Compound 107, 5-[3-[4-[2-methyl-5-(trifluoromethyl)pyrazol-3-yl]-1H-imidazol-2-yl]chroman-6-yl]oxy-3,4-dihydro-1H-1,8-naphthyridin-2-one] was tested. Which IC50 [1] did it give?
The IC50 was 178 nM.

What about the IC50 ([2]; Abs) of the same compound?
Its IC50 is 191 nM.

What does the source list for Cc1ccc(-c2c[nH]c(C3COc4ccc(Oc5ccnc6c5CCC(=O)N6)cc4C3)n2)s1 (stereo not shown) [Compound 110]?
IC50 [1]: 107 nM; IC50 ([2]; Abs): 89.1 nM

CCc1cc(-c2c[nH]c(C3COc4ccc(Oc5ccnc6c5CCC(=O)N6)cc4C3)n2)n(C)n1 (stereo not shown) [Compound 111] was tested. Which IC50 [1] did it give?
Its IC50 is 537 nM.

And the IC50 ([2]; Abs)?
The IC50 was 219 nM.

What does the source list for Cc1cc(-c2c[nH]c(C3COc4ccc(Oc5ccnc6c5CCC(=O)N6)cc4C3)n2)n(C(C)C)n1 (stereo not shown) [Compound 112, 5-[3-[4-(2-isopropyl-5-methyl-pyrazol-3-yl)-1H-imidazol-2-yl]chroman-6-yl]oxy-3,4-dihydro-1H-1,8-naphthyridin-2-one]?
IC50 [1]: 1780 nM; IC50 ([2]; Abs): > 1000 nM

Which results are given for CCc1cc(-c2c[nH]c(C3COc4ccc(Oc5ccnc6c5CCC(=O)N6)cc4C3)n2)n(C2CC2)n1 (stereo not shown) [Compound 113, 5-[3-[4-(2-cyclopropyl-5-ethyl-pyrazol-3-yl)-1H-imidazol-2-yl]chroman-6-yl]oxy-3,4-dihydro-1H-1,8-naphthyridin-2-one]?
IC50 [1]: 4680 nM; IC50 ([2]; Abs): > 1000 nM

Which results are given for Cc1cc(-c2c[nH]c(C3COc4ccc(Oc5ccnc6c5CCC(=O)N6)cc4C3)n2)n(C2CC2)n1 (stereo not shown) [Compound 114, 5-[3-[4-(2-cyclopropyl-5-methyl-pyrazol-3-yl)-1H-imidazol-2-yl]chroman-6-yl]oxy-3,4-dihydro-1H-1,8-naphthyridin-2-one]?
IC50 [1]: 2570 nM; IC50 ([2]; Abs): > 1000 nM

How did the IC50 [1] turn out when CC(C)(C)CCc1c[nH]c(C2COc3ccc(Oc4ccnc5c4CCC(=O)N5)cc3C2)n1 (stereo not shown) [Compound 115, 5-[3-[4-(3,3-dimethylbutyl)-1H-imidazol-2-yl]chroman-6-yl]oxy-3,4-dihydro-1H-1,8-naphthyridin-2-one] was run?
The IC50 was 13.8 nM.

And the IC50 ([2]; Abs)?
The IC50 was 45.7 nM.

For CC(C)CCc1c[nH]c(C2COc3ccc(Oc4ccnc5c4CCC(=O)N5)cc3C2)n1 (stereo not shown) [Compound 116], which IC50 [1] is on record?
Its IC50 is 46.8 nM.

And the IC50 ([2]; Abs)?
Its IC50 is 67.6 nM.

With Cc1cc(-c2c[nH]c(C3COc4ccc(Oc5ccnc6c5CCC(=O)N6)cc4C3)n2)ccn1 (stereo not shown) [Compound 117, 5-[3-[4-(2-methyl-4-pyridyl)-1H-imidazol-2-yl]chroman-6-yl]oxy-3,4-dihydro-1H-1,8-naphthyridin-2-one] as the compound, how does the IC50 [1] read?
Its IC50 is 724 nM.

What about the IC50 ([2]; Abs) of the same compound?
The IC50 was 107 nM.

For CCc1cc(-c2c[nH]c(C3COc4ccc(Oc5ccnc6c5CCC(=O)N6)cc4C3)n2)ccn1 (stereo not shown) [Compound 118, 5-[3-[4-(2-ethyl-4-pyridyl)-1H-imidazol-2-yl]chroman-6-yl]oxy-3,4-dihydro-1H-1,8-naphthyridin-2-one], which IC50 [1] is on record?
Its IC50 is 631 nM.

And the IC50 ([2]; Abs)?
Its IC50 is 269 nM.

How did the IC50 [1] turn out when COc1csc(-c2c[nH]c(C3COc4ccc(Oc5ccnc6c5CCC(=O)N6)cc4C3)n2)c1 (stereo not shown) [Compound 122, 5-[3-[5-(4-methoxy-2-thienyl)-1H-imidazol-2-yl]chroman-6-yl]oxy-3,4-dihydro-1H-1,8-naphthyridin-2-one] was run?
Its IC50 is 288 nM.

And the IC50 ([2]; Abs)?
The IC50 was 132 nM.

What does the source list for COc1ccsc1-c1c[nH]c(C2COc3ccc(Oc4ccnc5c4CCC(=O)N5)cc3C2)n1 (stereo not shown) [Compound 123]?
IC50 [1]: 28.2 nM; IC50 ([2]; Abs): 63.1 nM
